Entries after “also recorded” stand apart in the source; their conditions may differ. No end group written: not given here.
Tests used:
[1] = test system: bovine zona glomerulosa cells; assay: Cholesterol content of submitochondrial fractions (cholesterol oxidase assay); type: cell-based
Method: (§1) Freshly-prepared bovine zona glomerulosa cells were stimulated with Ang II (10 nM) or submitted to a cytosolic Ca^2+ clamp (600 nM) for 2 h. Mitochondria were isolated and subfractionated into outer membranes (OM), inner membranes (IM) and contact sites (CS). Cholesterol content was determined by the cholesterol oxidase assay.
as §1, with “gomerulosa” for “glomerulosa”, “h, as described in Example 9.” for “h.”, “assay, also as described in Example 9.” for “assay.”

StAR protein [2] = assay: Western blot of StAR protein in mitochondria of glomerulosa cells; type: cell-based, bovine
StAR protein [3] = assay: Immunoblot of StAR protein expression in H295R cells; type: cell-based, human; conditions: treatment of H295R cells with agonist
Method: FIG. 4. Effect of KN93 on agonist-stimulated aldosterone production and StAR protein expression in H295R cells. […] The medium aldosterone content was determined by R.I.A. and normalized to the tissue culture well protein content. Data points represent the mean ±SE of values from six separate culture wells expressed as fold increase over basal. Significant inhibition relative to the control response is indicated at *p<0.01. StAR protein was examined using equivalent amounts of total cellular lysate (30 μg) by immunoblot analysis as described in the Methods. Results are representative of those obtained from three separate experiments.
For each treatment, cells were solubilized as described above and an equivalent amount of protein (30 μg) for each sample were separated by SDS-PAGE (12.5%) and then electrophoretically transferred to polyvinylidene difluoride membrane as previously described (Clark et al (1994) J. Biol. Chem., 269:2831-322, reference specifically incorporated herein by reference). Immunoblot analysis was as described (Id) using a rabbit sera containing the specific StAR antipeptide antibody (see ANTIBODIES infra) as the primary label and a donkey anti-rabbit IgG conjugated with horseradish peroxidase (Amersham, Arlington Heights, Ill.). The specific signal was detected by chemiluminescence assays using the Renaissance kit from DuPont NEN (Boston, Mass.) and the StAR specific bands were quantitated by BioImage Visage 2000 computer-assisted image analysis (BioImage, Ann Arbor, Mich.). Different exposure times were used to insure linearity.

StAR protein [4] = assay: Synthesis of StAR protein in MA-10 cells after CRH, dbcAMP or hCG; type: cell-based, mouse

Compound: [Ca+2] [Ca^2+]
- cholesterol content of OM ([1]; cytosolic Ca2+ clamp 600 nM, 2 h, n=5): 54±24 % of controls
- StAR protein in mitochondrial extracts (StAR protein [2]; Ca2+ stimulation, cycloheximide-sensitive, n=5): 141±14 % of controls

Compound: [Cl-].[K+] [K^+, potassium chloride]
- amount of StAR protein (StAR protein [3]): increased; also recorded: elevated

Compound: C[C@@H]1C[C@@H]([C@H](O)CC2CC(=O)NC(=O)C2)C(=O)[C@@H](C)C1 [Cycloheximide]
- Ca2+-activated cholesterol transfer to IM [1]: significantly reduced
- effect on Ang II increase of StAR in IM (StAR protein [2]): prevented

Compound: CRH: Corticotropin-Releasing Hormone (SEEPPISLDLTFHLLREVLEMARAEQLAQQAHSNRKLMEII; ends and bridges not checked; UniProt P06850 154-194, looked up)
- concentration of maximal response (StAR synthesis) (StAR protein [4]): 1 µM
- synthesis of the StAR protein (StAR protein [4]): dose-dependent increase
- time of maximal response following stimulation (StAR protein [4]; CRH at 1 μM): 4 h
- level of StAR synthesis versus maximal doses of CRH or hCG alone (StAR protein [4]; in the presence of hCG): higher level

Compound: [Val^5]-Angiotensin II acetate (DRVYVHPF; also: acetate salt; UniProt P01019 25-32, looked up, variant I5V) [Ang II]
- OM cholesterol ([1]; Ang II 10 nM, 2 h): No significant changes
- cholesterol in contact sites (CS) ([1]; Ang II 10 nM, 2 h, n=3): 172±28 % of controls
- StAR protein (StAR protein [2]; Ang II stimulated glomerulosa cells, n=2): 157 % of controls
- StAR in IM (StAR protein [2]; Ang II stimulation): increased
- amount of StAR protein (StAR protein [3]): increased; also recorded: elevated

Compound: COC(=O)C1=C(C)NC(C)=C([N+](=O)[O-])C1c1ccccc1C(F)(F)F (stereo not drawn) [Bay K, (=)-Bay K 8644]
- amount of StAR protein (StAR protein [3]): increased; also recorded: elevated
